{
  "source": "patent US9193713B2",
  "about": "“Compounds as cannabinoid receptor ligands” (priority 2007, dated 2015)",
  "origin": "cited, not measured here",
  "key": {"[1]": {"tested_on": "rat", "settings": "rat formalin model of persistent pain"}, "[2]": {"tested_on": "mice", "settings": "model for post-menopausal osteoporosis"}, "[3]": {"tested_on": "osteoclast"}, "[4]": {"tested_on": "animal models", "settings": "acute thermal, persistent, inflammatory and neuropathic pain models"}, "[5]": {"tested_on": "rodent", "settings": "neuropathic, incisional, chronic and acute inflammatory pain"}, "[6]": {"tested_on": "microglial", "settings": "in vitro; effects blocked by SR144528"}, "[7]": {"tested_on": "apolipoprotein E knockout mice", "settings": "low doses; effects inhibited by SR144528"}},
  "data": [
    {"compound": "CCCCCCC(C)(C)c1cc(OC)c([C@@H]2C=C(CO)[C@@H]3C[C@H]2C3(C)C)c(OC)c1", "note": "[HU-308]", "values": [
      {"measurement": "antinociceptive response", "setting": "[1]", "value": "elicits an antinociceptive response"}
    ]},
    {"compound": "SR144528", "values": [
      {"measurement": "effect on ovariectomy-induced bone loss", "setting": "[2]", "value": "reverse ovariectomy-induced bone loss"},
      {"measurement": "effect on osteoclast activity", "setting": "[3]", "value": "inhibit osteoclast activity"}
    ]},
    {"compound": "CN1CCCCC1Cn1cc(C(=O)c2cc([N+](=O)[O-])ccc2I)c2ccccc21", "note": "(stereo not shown) [AM-1241]", "values": [
      {"measurement": "analgesic efficacy", "setting": "[4]", "value": "robust analgesic efficacy"}
    ]},
    {"compound": "COc1ccc2c(c1)c(CCN1CCOCC1)c(C)n2C(=O)c1cccc(Cl)c1Cl", "note": "[GW405833]", "values": [
      {"measurement": "efficacy in pain models", "setting": "[5]", "value": "efficacious"}
    ]},
    {"compound": "CCCC(C)(C)c1ccc2c(c1)OC(C)(C)[C@@H]1CC=C(C)C[C@@H]21", "note": "[JWH-133]", "values": [
      {"measurement": "effect on β-amyloid-induced microglial activation and neurotoxicity", "setting": "[6]", "value": "abrogated β-amyloid-induced microglial activation and neurotoxicity"}
    ]},
    {"compound": "(−)-Δ^9-Tetrahydrocannabinol [THC]", "values": [
      {"measurement": "effect on progression of atherosclerotic lesions", "setting": "[7]", "value": "slowed the progression of atherosclerotic lesions"}
    ]}
  ]
}
